Experimental data reported in PMC2762271 (Journal of medicinal chemistry, 2009).

Assays:
tubulin = assay: Inhibition of tubulin polymerization; format: biochemical; details: for fold less active than 5t as inhibitor of tubulin assembly: relative to 5t
[1] = test system: L1210, FM3A, Molt4, CEM, and HeLa cell lines; assay: Antiproliferative activity, panel of five tumor cell lines; format: cell-based; details: on average over the cell lines
L1210 = assay: Antiproliferative activity, L1210 cell line; format: cell-based; details: Mus musculus, L1210, read-out: IC50 L1210

Compound: Nc1nc(Nc2ccccc2)sc1C(=O)c1ccccc1 [5a]
- fold less active than 5t as inhibitor of tubulin assembly (tubulin): 5 fold

Compound: COc1cccc(Nc2nc(N)c(C(=O)c3ccccc3)s2)c1 [5f]
- fold less active than 5t as inhibitor of tubulin assembly (tubulin): 10 fold

Compound: COc1cc(C(=O)c2sc(Nc3ccc(F)cc3)nc2N)cc(OC)c1OC [5r]
- average fold reduction of potency relative to 5q (cell growth inhibition) [1]: 27 fold

Compound: COc1cc(C(=O)c2sc(Nc3ccc(Cl)cc3)nc2N)cc(OC)c1OC [5s]
- average fold reduction of potency relative to 5q (cell growth inhibition) [1]: 27 fold

Compound: COc1cc(C(=O)c2sc(Nc3ccc(C)cc3)nc2N)cc(OC)c1OC [5t]
- times more potent than 4a (tubulin assembly) (tubulin; relative to 4a): 5 times
- times more potent than CA-4 (tubulin assembly) (tubulin; relative to CA-4): 2 times

Compound: COc1ccc(Nc2nc(N)c(C(=O)c3cc(OC)c(OC)c(OC)c3)s2)cc1 [5u]
- average fold reduction of potency relative to 5q (cell growth inhibition) [1]: 83 fold

Compound: COc1ccc(/C=C\c2cc(OC)c(OC)c(OC)c2)cc1O [CA-4, combretastatin A-4]
- IC50 (L1210): 2.8 ± 1.1 nM
